Test results as given in article PMC7343696 (EJNMMI Research, 2020).
“Also recorded” adds a separate entry of the source. Counter-ions that a name gives are not always drawn. Like-named read-outs stand apart in the source and are kept apart here. Marks after values point to notes of the source that are not given here.

Experiments:
[1] = molecular target: T1, human platelets (uptake via SERT) (Homo sapiens, UniProt P31645); assay: [3H]serotonin uptake inhibition in isolated human platelets; type: cell-based; conditions: 15 min
T1 construct: endogenous in cells; host or cells: human platelets in platelet-rich plasma from patients with polycythemia vera or secondary polycythemia

[2] = molecular target: T1, human platelets (uptake via SERT); assay: [125I]MIBG uptake inhibition in isolated human platelets; type: cell-based
[3] = molecular target: T2, human SK-N-SH neuroblastoma cells (uptake via NET) (Homo sapiens, UniProt P23975); assay: [125I]MIBG uptake inhibition in cultured SK-N-SH neuroblastoma cells; type: cell-based
T2 construct: host or cells: SK-N-SH human neuroblastoma cells

[4] = tested on: SK-N-SH neuroblastoma xenografts; assay: [125I]MIBG tumor uptake in mice bearing SK-N-SH neuroblastoma xenografts; type: in vivo, BALB/c nu/nu mice; conditions: for Effect on [125I]MIBG accumulation in neuroblastoma xenografts (in words): inhibitor IP 30 min before [125I]MIBG, tissues 1 h after, doses as in Fig. 6
Method: (§1) Female athymic BALB/c nu/nu mice were bred in the animal facility of the Netherlands Cancer Institute. Experiments were performed in accordance with the national regulations for animal experimentations and approved by the local animal welfare committee. Subcutaneous (s.c.) neuroblastoma tumors consisted of either first passages of intrasplenic-induced SK-N-SH xenografts or later passages from s.c. propagation of the xenograft. […] The tumor volume doubling time was on average 5 days. The toxicity of each monoamine transporter inhibitor was assessed in 2 to 5 non-tumor-bearing nude mice by 1 h careful observation following intraperitoneal (IP) injection of the monoamine transporter inhibitor. Applied inhibitor doses were based on earlier studies (summarized in Electronic Supplementary Material: Table I) and varied from 2 to 50 mg/kg. Provided that no toxicity was observed, plasma of these animals was subsequently analyzed in the ex vivo bioassay described below. […]. First, mice were treated IP with either a monoamine transporter inhibitor or sodium chloride (control). Thirty minutes later, they received an injection in the tail vein with 1 μg MIBG spiked with 4.0–8.0 kBq [^125I]MIBG. One hour after administration of the radiopharmaceutical, the animals were bled from the carotid artery under ether anesthesia and dissected. Tumors and tissues of interest were blotted to remove adhering blood, weighted, and gamma counted. The [^125I]MIBG tissue levels were expressed as the percentage of the injected radioactivity dose per gram tissue. Mice bearing PC12 pheochromocytoma xenografts induced by direct s.c. injections of PC12 cells were used in similar uptake and inhibition experiments.

[5] = tested on: PC12 pheochromocytoma xenografts; assay: [125I]MIBG tumor uptake in mice bearing PC12 pheochromocytoma xenografts; type: in vivo; conditions: for Effect on tumor MIBG uptake in PC12 pheochromocytoma xenografts (in words): data not shown
Method: as §1

[6] = cited from earlier work
[7] = tested on: tryptophan or 5-hydroxytryptophan induced symptoms; conditions: mice, assay type I, cited from earlier work
[8] = parameters: method as in ref (3) (a number printed in a supplementary file, which may have a reference list of its own: not looked up in the article's list); conditions: mice, 24 mg/kg i.v., fifteen min after administration; ref (3); cited from earlier work
[9] = tested on: platelet function; conditions: plasma concentrations that will inhibit SERT; cited from earlier work
[10] = tested on: amphetamine-stimulated locomotor activity; parameters: method as in ref (8) (a number printed in a supplementary file, which may have a reference list of its own: not looked up in the article's list); conditions: mice, i.p., assay type IV; ref (8); cited from earlier work
[11] = molecular target: T3, SERT (Homo sapiens, UniProt P31645); type: cell-based
T3 construct: host or cells: HEK293 (ATCC CRL-3216), transient transfection

[12] = molecular target: T4, NET (Homo sapiens, UniProt P23975); assay: [125I]MIBG uptake and its inhibition in NET-transfected HEK293 cells (HEK-NET); type: cell-based
T4 construct: host or cells: HEK293 (ATCC CRL-3216), transient transfection

[13] = tested on: SERT; conditions: cited from earlier work
[14] = [125I]MIBG as substrate, HEK-SERT
[15] = [125I]MIBG as substrate, HEK-NET

T1 sequence (P31645 whole entry): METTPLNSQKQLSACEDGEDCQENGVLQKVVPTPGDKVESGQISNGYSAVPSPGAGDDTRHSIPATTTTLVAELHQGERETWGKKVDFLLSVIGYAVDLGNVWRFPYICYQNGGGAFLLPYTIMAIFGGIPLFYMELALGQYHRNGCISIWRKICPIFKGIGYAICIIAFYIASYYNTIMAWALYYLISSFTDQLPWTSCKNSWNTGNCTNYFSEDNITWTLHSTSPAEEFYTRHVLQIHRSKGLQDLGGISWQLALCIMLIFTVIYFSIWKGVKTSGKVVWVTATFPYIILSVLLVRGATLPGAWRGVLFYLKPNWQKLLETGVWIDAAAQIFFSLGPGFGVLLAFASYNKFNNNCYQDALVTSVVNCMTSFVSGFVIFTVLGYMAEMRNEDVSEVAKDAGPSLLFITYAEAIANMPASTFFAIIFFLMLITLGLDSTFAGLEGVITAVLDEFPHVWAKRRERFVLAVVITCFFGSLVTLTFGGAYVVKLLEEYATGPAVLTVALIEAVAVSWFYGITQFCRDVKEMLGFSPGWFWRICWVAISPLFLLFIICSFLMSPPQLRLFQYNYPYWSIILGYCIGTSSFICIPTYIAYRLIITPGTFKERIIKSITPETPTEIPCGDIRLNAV
T3 sequence (P31645 whole entry): as above
T4 sequence (P23975 whole entry): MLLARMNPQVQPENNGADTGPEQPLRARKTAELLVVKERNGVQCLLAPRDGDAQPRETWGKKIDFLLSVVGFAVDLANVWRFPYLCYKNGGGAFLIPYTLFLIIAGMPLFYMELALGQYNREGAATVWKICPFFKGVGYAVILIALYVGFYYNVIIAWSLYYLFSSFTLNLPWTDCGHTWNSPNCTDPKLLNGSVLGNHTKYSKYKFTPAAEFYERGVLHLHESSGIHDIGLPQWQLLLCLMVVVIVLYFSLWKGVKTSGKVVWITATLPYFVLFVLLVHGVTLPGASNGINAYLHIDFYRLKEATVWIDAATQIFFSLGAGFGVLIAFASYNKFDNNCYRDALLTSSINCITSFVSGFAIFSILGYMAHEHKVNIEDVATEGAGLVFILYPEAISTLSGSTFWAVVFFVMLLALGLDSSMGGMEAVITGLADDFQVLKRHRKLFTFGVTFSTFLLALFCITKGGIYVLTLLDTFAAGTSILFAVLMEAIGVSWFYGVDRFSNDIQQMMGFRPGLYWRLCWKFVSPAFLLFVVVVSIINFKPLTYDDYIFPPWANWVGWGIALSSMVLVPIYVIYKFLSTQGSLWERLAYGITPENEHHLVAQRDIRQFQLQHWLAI
T2 sequence (P23975 whole entry): as above

Molecule `CC(N)C(=O)OC(C)(C)Cc1ccc(Cl)cc1` (centres unmarked) [Alaproclate, alaproclate-HCl] has an IC50 ([1]; 10^−8 M substrate, 37 °C) of 0.516 µM, an IC50 ([2]; 10^−8 M substrate, 37 °C, 4 h) of 0.038 µM and an IC50 [3] of 43.4 µM. The “Selectivity factor, IC50 ratio” value [3] was 1158.

In the case of `CN(C)CCCC1(c2ccc(F)cc2)OCc2cc(C#N)ccc21` (centres unmarked) [Citalopram, citalopram-HBr], the “Effect on [125I]MIBG accumulation in neuroblastoma xenografts (in words)” value (from here on “Effect on [125I]MIBG accumulation”) [4] is listed as “not significantly affected”, the “Effect on tumor MIBG uptake in PC12 pheochromocytoma xenografts (in words)” value (“Effect on tumor MIBG uptake” below) [5] is listed as “no significant difference” and the Plasma half-life ([6]; after oral ingestion) is listed as 33 to 54 h. The “Time to maximum plasma drug levels” value ([6]; after oral ingestion) was at most 4 h, the “Absorption after oral ingestion (in words)” value [6] was “completely absorbed” and the “50 % effective dose” value ([7]; i.p., ref (1)) was 0.9^c mg/kg. For the same molecule, the “50 % effective dose” value ([7]; oral, ref (2)) was 1.2^c mg/kg, the Plasma level [8] was 6 µM and the “Effect on platelet function (in words)” value [9] was “no effect on platelet function”.

In the case of `CNCCCN1c2ccccc2CCc2ccccc21` [Desipramine, desipramine-HCl], the “Decrease of [125I]MIBG accumulation in neuroblastoma xenografts” value ([4]; 20 mg/kg IP 30 min before [125I]MIBG) is reported as 60%, the “Effect on [125I]MIBG accumulation” value [4] is reported as “profoundly decreased” and the “Effect on tumor MIBG uptake” value [5] is reported as “same reduction of MIBG uptake as seen in SK-N-SH neuroblastoma xenografts”. The “50 % effective dose” value ([7]; i.p., ref (1)) was >39^c mg/kg, the “50 % effective dose” value ([7]; oral, ref (2, 4, 7)) was 20 – 320^c mg/kg and the “Reported effective dose (cell not marked as 50 % effective dose)” value [10] was 5 to 36 mg/kg.

In the case of `CNCCC(Oc1ccc(C(F)(F)F)cc1)c1ccccc1` (centres unmarked) [Fluoxetine, fluoxetine-HCl], the Elimination half-life [6] is given as 24 to 96 h.

With `COCCCC/C(=N\OCCN)c1ccc(C(F)(F)F)cc1` [Fluvoxamine, fluvoxamine-maleate] the “Inhibition of [125I]MIBG uptake in HEK-SERT cells (in words)” value ([11]; 1 h, substrate 10^−6 M) was “potently inhibited”, the “Inhibition of [125I]MIBG uptake in HEK-NET cells (in words)” value ([12]; 1 h, substrate 10^−6 M) was “no significant inhibitory effect at low concentrations” and the “Inhibition of [3H]serotonin uptake in human platelets (in words)” value ([1]; co-incubation) was “effective, inhibitor concentration-dependent inhibition”. For the same molecule, the “Inhibition of [125I]MIBG uptake in human platelets (in words)” value ([2]; co-incubation, 4 h) was “effective, inhibitor concentration-dependent inhibition”, the “Effect on [125I]MIBG accumulation” value [4] was “no effect; also recorded: not significantly affected” and the “Reduction of pheochromocytoma-associated radioactivity” value ([5]; PC12 xenografts, p < 0.002) was 64%. For the same molecule, the “50 % effective dose” value ([7]; oral, ref (2)) was 13^c mg/kg.

With `CN(C)CCCN1c2ccccc2CCc2ccccc21` [Imipramine, imipramine-HCl] the “Inhibition of [125I]MIBG uptake in human platelets (in words)” value [2] was “able to inhibit” and the “Effect on MIBG uptake in neuroblastoma cells (in words)” value [3] was “profound inhibitory effect”.

`N=C(N)NCc1cccc(I)c1` [MIBG, meta-iodobenzylguanidine] gave a Km ([11]; [125I]MIBG as substrate, HEK-SERT, 1 h incubation) of 9.7 µM and a Km ([12]; [125I]MIBG as substrate, HEK-NET, 1 h incubation) of 0.49 µM.

With `N=C(N)NCc1cccc([131I])c1` [MIBG, meta-iodobenzylguanidine] the “Nonspecific uptake, share of total uptake” value ([11]; SERT-transfected cells, substrate concentration 10^−5 M) was 22%, the “Catalytic efficiency (ratio Vmax/Km)” value [11, 14] was 0.0077 and the Vmax [11, 14] was 0.074 μmol/mg protein/min. For the same molecule, the “Nonspecific uptake, share of total uptake” value ([12]; NET-transfected cells, substrate concentration 10^−5 M) was 33%, the “Catalytic efficiency (ratio Vmax/Km)” value [12, 15] was 0.045 and the Vmax [12, 15] was 0.022 μmol/mg protein/min. The “Total uptake (percentage of added radioactivity)” value ([2]; control platelet samples without SSRIs, MIBG, n = 17) was 23.6 ± 3.6% and the “Nonspecific uptake (percentage of controls)” value ([2]; platelets, MIBG) was 12.3 ± 2.5%.

In the case of `NCCC(Oc1ccc(C(F)(F)F)cc1)c1ccccc1` (centres unmarked) [Norfluoxetine, norfluoxetine-HCl], the IC50 ([3]; 10^−8 M substrate, 37 °C, 4 h, read-out: IC50 of uptake inhibition, SK-N-SH, [125I]MIBG) is given as 2.76 µM and the Elimination half-life [6] is given as 170 to 360 h.

In the case of `Fc1ccc([C@@H]2CCNC[C@H]2COc2ccc3c(c2)OCO3)cc1` [Paroxetine, paroxetine-HCl], the “Effect on [125I]MIBG accumulation” value [4] is listed as “no effect; also recorded: not significantly affected”, the Bioavailability ([6]; extensive first-pass metabolism) is listed as “approximately 50%” and the “50 % effective dose” value ([7]; i.p., ref (1)) is listed as 0.2^c mg/kg.

For `CN[C@H]1CC[C@@H](c2ccc(Cl)c(Cl)c2)c2ccccc21` [Sertraline, sertraline-HCl], the “Effect on [125I]MIBG accumulation” value [4] is listed as “not significantly affected”, the “Effect on tumor MIBG uptake” value [5] is listed as “no significant difference” and the “Fraction absorbed after oral ingestion” value [6] is listed as 44%. The “50 % effective dose” value ([7]; i.p., ref (1)) was 1.5^c mg/kg and the “50 % effective dose” value ([7]; oral, ref (2)) was 1.0^c mg/kg.

For `CNCCCC1(c2ccc(F)cc2)OCc2cc(C#N)ccc21` (centres unmarked) [desmethylcitalopram], the “Potency and selectivity in inhibiting SERT in vitro compared with citalopram (in words)” value [13] is given as “only slightly less potent and selective than citalopram”.
